Source: patent US6355799B1, “Substituted benzene compounds, process for their preparation, and herbicidal and defoliant compositions containing them” (ISK Americas Incorporated, priority 1997, dated 2002)

Assays:
Format in all cases: in vivo
[1] = tested on: upland rice (Oryza sp., var. Tebonnet, RICE); assay: Post-emerge test, crop safety; settings: phytotoxicity rating 0-100 (0 no damage, 100 complete death), 14 days after application
Method in brief: (§1)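 Herbicidal damage is scored 0 (none) to 100 (complete plant death) two weeks after a simulated field spray. Rates span 15–1000 g ai/ha, delivered in acetone at 187 l/ha. For post-emergence treatments, plants have 2–3 leaves and the spray carries 0.25% v/v non-ionic surfactant.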

[2] = tested on: field corn (Zea mays L., var. Dekalb 535, CORN); assay: Post-emerge test, crop safety; settings: phytotoxicity rating 0-100 (0 no damage, 100 complete death), 14 days after application
Method in brief: as §1

[3] = tested on: lambsquarters (Chenopodium album, CHEAL); assay: Post-emerge test, greenhouse herbicide activity screening; settings: phytotoxicity rating 0-100 (0 no damage, 100 complete death), 14 days after application
Method in brief: (§2)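 Sandy loam pots; pre-emerge: sown 1 d pre-spray, surface-watered after, then bottom-watered. Post-emerge: sown 8–21 d before, 2–3 leaf stage, + 0.25% v/v NIS, bottom-watered. Acetone, 187 l/ha track spray, 15–1000 g ai/ha. 0–100 injury score, day 14.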

[4] = tested on: green foxtail (Setaria viridis, SETVI); assay: as above; settings: phytotoxicity rating 0-100 (0 no damage, 100 complete death), 14 days after application
Method in brief: as §2

[5] = tested on: redroot pigweed (Amaranthus retroflexus, AMARE); assay: as above; settings: phytotoxicity rating 0-100 (0 no damage, 100 complete death), 14 days after application
Method in brief: as §2

[6] = tested on: common ragweed (Ambrosia artemisizfolia L., AMBEL); assay: as above; settings: phytotoxicity rating 0-100 (0 no damage, 100 complete death), 14 days after application
Method in brief: as §2

[7] = tested on: barnyardgrass (Echinochloa crus-galli, ECHCG); assay: as above; settings: phytotoxicity rating 0-100 (0 no damage, 100 complete death), 14 days after application
Method in brief: as §2

[8] = tested on: large crabgrass (Digitaria sanguinalis, DIGSA); assay: as above; settings: phytotoxicity rating 0-100 (0 no damage, 100 complete death), 14 days after application
Method in brief: as §2

[9] = tested on: velvetleaf (Abutilon theophrasti, ABUTH); assay: as above; settings: phytotoxicity rating 0-100 (0 no damage, 100 complete death), 14 days after application
Method in brief: as §2

[10] = tested on: ivyleaf morningglory (Ipomoea hederacea, IPOHE); assay: as above; settings: phytotoxicity rating 0-100 (0 no damage, 100 complete death), 14 days after application
Method in brief: as §2

[11] = tested on: johnsongrass (Sorghum halepense, SORHA); assay: as above; settings: phytotoxicity rating 0-100 (0 no damage, 100 complete death), 14 days after application
Method in brief: as §2

[12] = tested on: sicklepod (Cassia obtusifolia, CASOB); assay: as above; settings: phytotoxicity rating 0-100 (0 no damage, 100 complete death), 14 days after application
Method in brief: as §2

[13] = tested on: lambsquarters (Chenopodium album, CHEAL); assay: Pre-emerge test, greenhouse herbicide activity screening; settings: pre-emerge, rated 14 days after application, 0 = no damage, 100 = complete death
Method in brief: as §1

[14] = tested on: green foxtail (Setaria viridis, SETVI); assay: as above; settings: pre-emerge, rated 14 days after application, 0 = no damage, 100 = complete death
Method in brief: as §1

[15] = tested on: common ragweed (Ambrosia artemisizfolia L., AMBEL); assay: as above; settings: pre-emerge, rated 14 days after application, 0 = no damage, 100 = complete death
Method in brief: as §1

[16] = tested on: barnyardgrass (Echinochloa crus-galli, ECHCG); assay: as above; settings: pre-emerge, rated 14 days after application, 0 = no damage, 100 = complete death
Method in brief: as §1

[17] = tested on: large crabgrass (Digitaria sanguinalis, DIGSA); assay: as above; settings: pre-emerge, rated 14 days after application, 0 = no damage, 100 = complete death
Method in brief: as §1

[18] = tested on: velvetleaf (Abutilon theophrasti, ABUTH); assay: as above; settings: pre-emerge, rated 14 days after application, 0 = no damage, 100 = complete death
Method in brief: as §1

[19] = tested on: ivyleaf morningglory (Ipomoea hederacea, IPOHE); assay: as above; settings: pre-emerge, rated 14 days after application, 0 = no damage, 100 = complete death
Method in brief: as §1

[20] = tested on: johnsongrass (Sorghum halepense, SORHA); assay: as above; settings: pre-emerge, rated 14 days after application, 0 = no damage, 100 = complete death
Method in brief: as §1

[21] = tested on: sicklepod (Cassia obtusifolia, CASOB); assay: as above; settings: pre-emerge, rated 14 days after application, 0 = no damage, 100 = complete death
Method in brief: as §1

[22] = tested on: upland rice (Oryza sp., var. Tebonnet, RICE); assay: Pre-emerge test, crop safety; settings: pre-emerge, rated 14 days after application, 0 = no damage, 100 = complete death
Method in brief: (§3)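 Compounds in acetone were track-sprayed at 15-1000 g ai/ha (187 l/ha) on sandy loam pots: pre-emerge one day after seeding, post-emerge at 2-3 leaf stage with 0.25% v/v non-ionic surfactant. Phytotoxicity was rated 14 days later on a 0 (no damage) to 100 (complete death) scale.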

[23] = tested on: field corn (Zea mays L., var. Dekalb 535, CORN); assay: Pre-emerge test, crop safety; settings: pre-emerge, rated 14 days after application, 0 = no damage, 100 = complete death
Method in brief: as §3

[24] = tested on: redroot pigweed (Amaranthus retroflexus, AMARE); assay: Pre-emerge test, greenhouse herbicide activity screening; settings: pre-emerge, rated 14 days after application, 0 = no damage, 100 = complete death
Method in brief: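 Compounds in acetone were track-sprayed at 187 l/ha, 15–1000 g ai/ha, onto sandy loam pots. Pre-emerge seeds were sown one day before spraying, with surface watering afterwards. Post-emerge plants were at the 2–3 leaf stage and sprayed with 0.25% v/v non-ionic surfactant. Injury was rated 0–100 at 14 days.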

## COc1c(Cl)cc(F)c(-n2c(=O)cc(C(F)(F)F)n(C)c2=O)c1NC(C)=O [2-1]
[1]; 63 g ai/ha
  Post-emerge Herbicidal Activity RICE (crop damage): 30
[1]; 250 g ai/ha
  Post-emerge Herbicidal Activity RICE (crop damage): 70
[2]; 63 g ai/ha
  Post-emerge Herbicidal Activity CORN (crop damage): 10
[2]; 250 g ai/ha
  Post-emerge Herbicidal Activity CORN (crop damage): 15
[3]; 63 g ai/ha
  Post-emerge Herbicidal Activity CHEAL: 95
[3]; 250 g ai/ha
  Post-emerge Herbicidal Activity CHEAL: 100
[4]; 63 g ai/ha
  Post-emerge Herbicidal Activity SETVI: 0
[4]; 250 g ai/ha
  Post-emerge Herbicidal Activity SETVI: 30
[5]; 63 g ai/ha
  Post-emerge Herbicidal Activity AMARE: 50
[5]; 250 g ai/ha
  Post-emerge Herbicidal Activity AMARE: 100
[6]; 63 g ai/ha
  Post-emerge Herbicidal Activity AMBEL: 30
[6]; 250 g ai/ha
  Post-emerge Herbicidal Activity AMBEL: 85
[7]; 63 g ai/ha
  Post-emerge Herbicidal Activity ECHCG: 0
[7]; 250 g ai/ha
  Post-emerge Herbicidal Activity ECHCG: 10
[8]; 63 g ai/ha
  Post-emerge Herbicidal Activity DIGSA: 0
[8]; 250 g ai/ha
  Post-emerge Herbicidal Activity DIGSA: 0
[9]; 63 g ai/ha
  Post-emerge Herbicidal Activity ABUTH: 100
[9]; 250 g ai/ha
  Post-emerge Herbicidal Activity ABUTH: 100
[10]; 63 g ai/ha
  Post-emerge Herbicidal Activity IPOHE: 100
[10]; 250 g ai/ha
  Post-emerge Herbicidal Activity IPOHE: 100
[11]; 63 g ai/ha
  Post-emerge Herbicidal Activity SORHA: 0
[11]; 250 g ai/ha
  Post-emerge Herbicidal Activity SORHA: 0
[12]; 63 g ai/ha
  Post-emerge Herbicidal Activity CASOB: 50
[12]; 250 g ai/ha
  Post-emerge Herbicidal Activity CASOB: 100
[13]; 63 g ai/ha
  Pre-emerge Herbicidal Activity CHEAL (phytotoxicity rating, scale 0-100): 90
[13]; 250 g ai/ha
  Pre-emerge Herbicidal Activity CHEAL (phytotoxicity rating, scale 0-100): 100
[14]; 63 g ai/ha
  Pre-emerge Herbicidal Activity SETVI (phytotoxicity rating, scale 0-100): 80
[14]; 250 g ai/ha
  Pre-emerge Herbicidal Activity SETVI (phytotoxicity rating, scale 0-100): 95
[15]; 63 g ai/ha
  Pre-emerge Herbicidal Activity AMBEL (phytotoxicity rating, scale 0-100): 50
[15]; 250 g ai/ha
  Pre-emerge Herbicidal Activity AMBEL (phytotoxicity rating, scale 0-100): 100
[16]; 63 g ai/ha
  Pre-emerge Herbicidal Activity ECHCG (phytotoxicity rating, scale 0-100): 10
[16]; 250 g ai/ha
  Pre-emerge Herbicidal Activity ECHCG (phytotoxicity rating, scale 0-100): 70
[17]; 63 g ai/ha
  Pre-emerge Herbicidal Activity DIGSA (phytotoxicity rating, scale 0-100): 20
[17]; 250 g ai/ha
  Pre-emerge Herbicidal Activity DIGSA (phytotoxicity rating, scale 0-100): 100
[18]; 63 g ai/ha
  Pre-emerge Herbicidal Activity ABUTH (phytotoxicity rating, scale 0-100): 100
[18]; 250 g ai/ha
  Pre-emerge Herbicidal Activity ABUTH (phytotoxicity rating, scale 0-100): 100
[19]; 63 g ai/ha
  Pre-emerge Herbicidal Activity IPOHE (phytotoxicity rating, scale 0-100): 95
[19]; 250 g ai/ha
  Pre-emerge Herbicidal Activity IPOHE (phytotoxicity rating, scale 0-100): 100
[20]; 63 g ai/ha
  Pre-emerge Herbicidal Activity SORHA (phytotoxicity rating, scale 0-100): 30
[20]; 250 g ai/ha
  Pre-emerge Herbicidal Activity SORHA (phytotoxicity rating, scale 0-100): 70
[21]; 63 g ai/ha
  Pre-emerge Herbicidal Activity CASOB (phytotoxicity rating, scale 0-100): 80
[21]; 250 g ai/ha
  Pre-emerge Herbicidal Activity CASOB (phytotoxicity rating, scale 0-100): 100
[22]; 63 g ai/ha
  Pre-emerge crop damage RICE (phytotoxicity rating, scale 0-100): 80
[22]; 250 g ai/ha
  Pre-emerge crop damage RICE (phytotoxicity rating, scale 0-100): 90
[23]; 63 g ai/ha
  Pre-emerge crop damage CORN (phytotoxicity rating, scale 0-100): 30
[23]; 250 g ai/ha
  Pre-emerge crop damage CORN (phytotoxicity rating, scale 0-100): 80
[24]; 63 g ai/ha
  Pre-emerge Herbicidal Activity AMARE (phytotoxicity rating, scale 0-100): 60
[24]; 250 g ai/ha
  Pre-emerge Herbicidal Activity AMARE (phytotoxicity rating, scale 0-100): 100
